Test results: US9115101B2 (Genentech, Inc., priority 2012, dated 2015)

Biological target: T1, RORc ligand binding domain (Homo sapiens, UniProt P51449)
T1 construct: host or cells: E. coli
T1 sequence (P51449 269-508 limits assumed): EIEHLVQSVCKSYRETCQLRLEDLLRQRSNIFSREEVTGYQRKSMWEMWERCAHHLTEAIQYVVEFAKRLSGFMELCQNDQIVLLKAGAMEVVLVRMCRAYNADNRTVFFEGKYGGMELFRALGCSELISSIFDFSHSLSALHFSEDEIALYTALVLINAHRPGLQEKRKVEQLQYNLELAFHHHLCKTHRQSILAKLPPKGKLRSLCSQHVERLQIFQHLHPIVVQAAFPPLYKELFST
Assay: In Vitro RORc Ligand Binding Assay (25-[3H]hydroxycholesterol radioligand filtration)
Conditions: In Vitro RORc Ligand Binding Assay; Table 4; read-out: RORc IC50

IC50	SMILES
8 nM	CC(=O)N1CCN(c2ccc(CN3[C@@H](C)CCC(c4ccccc4)S3(=O)=O)c(F)c2)C[C@@H]1C (stereo partly drawn) [Example 238, 1-{4-[3-Fluoro-4-((3S)-methyl-1,1-dioxo-6-phenyl-[1,2]thiazinan-2-ylmethyl)-phenyl]-2-methyl-piperazin-1-yl}-ethanone]
85 nM	C[C@H]1CCC(c2ccccc2)S(=O)(=O)N1Cc1ccc(N[C@H]2C[C@@H](n3cnnc3)C2)cc1F (stereo partly drawn) [Example 241, [3-Fluoro-4-((3S)-methyl-1,1-dioxo-6-phenyl-[1,2]thiazinan-2-ylmethyl)-phenyl]-(3-[1,2,4]triazol-4-yl-cyclobutyl)-amine]
189 nM	CC(=O)N1C[C@@H]2CN(c3ccc(CN4[C@@H](C)CCC(c5ccccc5)S4(=O)=O)c(F)c3)C[C@@H]2C1 (stereo partly drawn) [Example 245, 1-{(3aR,6aS)-5-[3-Fluoro-4-((3S)-methyl-1,1-dioxo-6-phenyl-[1,2]thiazinan-2-ylmethyl)-phenyl]-hexahydro-pyrrolo[3,4-c]pyrrol-2-yl}-ethanone]
31 nM	COC(=O)[C@H]1CN(c2ccc(CN3[C@@H](C)CCC(c4ccccc4)S3(=O)=O)c(F)c2)CCN1C(C)=O (stereo partly drawn) [Example 260, 1-Acetyl-4-[3-fluoro-4-((3S)-methyl-1,1-dioxo-6-phenyl-[1,2]thiazinan-2-ylmethyl)-phenyl]-piperazine-2-carboxylic acid methyl ester]
379 nM	CC(=O)N1CCN(c2ccc(CN3[C@@H](C)CCC(c4ccccc4)S3(=O)=O)c(F)c2)C[C@@H]1C(=O)O (stereo partly drawn) [Example 261, 1-Acetyl-4-[3-fluoro-4-((3S)-methyl-1,1-dioxo-6-phenyl-[1,2]thiazinan-2-ylmethyl)-phenyl]-piperazine-2-carboxylic acid]
82 nM	CC(=O)N1CCN(c2ccc(CN3[C@@H](C)CCC(c4ccccc4)S3(=O)=O)c(F)c2)C[C@@H]1CO (stereo partly drawn) [Example 262, 1-{4-[3-Fluoro-4-((3S)-methyl-1,1-dioxo-6-phenyl-[1,2]thiazinan-2-ylmethyl)-phenyl]-2-hydroxymethyl-piperazin-1-yl}-ethanone]
15 nM	C[C@H]1CN(c2ccc(CN3[C@@H](C)CCC(c4ccccc4)S3(=O)=O)c(F)c2)CCN1C(=O)CC#N (stereo partly drawn) [Example 263, 3-{4-[3-Fluoro-4-((3S)-methyl-1,1-dioxo-6-phenyl-[1,2]thiazinan-2-ylmethyl)-phenyl]-2-methyl-piperazin-1-yl}-3-oxo-propionitrile]
18 nM	CC(=O)N1CCN(c2ccc(CN3[C@@H](C)CCC(c4ccccc4)S3(=O)=O)c(F)c2)C[C@H]1C (stereo partly drawn) [Example 264, 1-{4-[3-Fluoro-4-((3S)-methyl-1,1-dioxo-6-phenyl-[1,2]thiazinan-2-ylmethyl)-phenyl]-2-methyl-piperazin-1-yl}-ethanone]
66 nM	C[C@@H]1CC(c2ccccc2)S(=O)(=O)N(Cc2ccc(N3CCC(n4cnnc4)CC3)cc2F)C1 (stereo partly drawn) [Example 265, 2-[2-Fluoro-4-(4-[1,2,4]triazol-4-yl-piperidin-1-yl)-benzyl]-(4R)-methyl-6-phenyl-[1,2]thiazinane 1,1-dioxide]
4280 nM	C[C@H]1CCC(c2ccccc2)S(=O)(=O)N1Cc1ccc(C(=O)N2CCC(C#N)CC2)cc1 (stereo partly drawn) [Example 279, 1-[4-((3S)-Methyl-1,1-dioxo-6-phenyl-[1,2]thiazinan-2-ylmethyl)-benzoyl]-piperidine-4-carbonitrile]
2650 nM	C[C@H]1CCC(c2ccccc2)S(=O)(=O)N1Cc1ccc(C(=O)N2CCCCC2CO)cc1 (stereo partly drawn) [Example 280, (2-Hydroxymethyl-piperidin-1-yl)-[4-((3S)-methyl-1,1-dioxo-6-phenyl-[1,2]thiazinan-2-ylmethyl)-phenyl]-methanone]
2040 nM	C[C@H]1CCC(c2ccccc2)S(=O)(=O)N1Cc1ccc(C(=O)N2CCCC(CO)C2)cc1 (stereo partly drawn) [Example 281, (3-Hydroxymethyl-piperidin-1-yl)-[4-((3S)-methyl-1,1-dioxo-6-phenyl-[1,2]thiazinan-2-ylmethyl)-phenyl]-methanone]

Further lines, the molecule ahead of its results:

SMILES	IC50
C[C@H]1CCC(c2ccccc2)S(=O)(=O)N1Cc1ccc(C(=O)NC2CC(O)C2)cc1 (stereo partly drawn) [Example 268, N-(3-Hydroxy-cyclobutyl)-4-((3S)-methyl-1,1-dioxo-6-phenyl-[1,2]thiazinan-2-ylmethyl)-benzamide]	3250 nM
C[C@H]1CCC(c2ccccc2)S(=O)(=O)N1Cc1ccc(C(=O)NCC2COC2)cc1 (stereo partly drawn) [Example 269, 4-((3S)-Methyl-1,1-dioxo-6-phenyl-[1,2]thiazinan-2-ylmethyl)-N-oxetan-3-ylmethyl-benzamide]	1670 nM
C[C@H]1CCC(c2ccccc2)S(=O)(=O)N1Cc1ccc(C(=O)NC2CCCC2O)cc1 (stereo partly drawn) [Example 270, N-(2-Hydroxy-cyclopentyl)-4-((3S)-methyl-1,1-dioxo-6-phenyl-[1,2]thiazinan-2-ylmethyl)-benzamide]	2440 nM
C[C@H]1CCC(c2ccccc2)S(=O)(=O)N1Cc1ccc(C(=O)NCC2CCOC2)cc1 (stereo partly drawn) [Example 271, 4-((3S)-Methyl-1,1-dioxo-6-phenyl-[1,2]thiazinan-2-ylmethyl)-N-(tetrahydro-furan-3-ylmethyl)-benzamide]	1690 nM
C[C@H]1CCC(c2ccccc2)S(=O)(=O)N1Cc1ccc(C(=O)NCCCN2CCCC2=O)cc1 (stereo partly drawn) [Example 272, 4-((3S)-Methyl-1,1-dioxo-6-phenyl-[1,2]thiazinan-2-ylmethyl)-N-[3-(2-oxo-pyrrolidin-1-yl)-propyl]-benzamide]	2890 nM
C[C@H]1CCC(c2ccccc2)S(=O)(=O)N1Cc1ccc(C(=O)NC2CCCC(O)C2)cc1 (stereo partly drawn) [Example 273, N-(3-Hydroxy-cyclohexyl)-4-((3S)-methyl-1,1-dioxo-6-phenyl-[1,2]thiazinan-2-ylmethyl)-benzamide]	5470 nM
C[C@H]1CCC(c2ccccc2)S(=O)(=O)N1Cc1ccc(C(=O)NC2CCC(O)CC2)cc1 (stereo partly drawn) [Example 274, N-(4-Hydroxy-cyclohexyl)-4-((3S)-methyl-1,1-dioxo-6-phenyl-[1,2]thiazinan-2-ylmethyl)-benzamide]	4410 nM
C[C@H]1CCC(c2ccccc2)S(=O)(=O)N1Cc1ccc(C(=O)NCCN2CCCC2=O)cc1 (stereo partly drawn) [Example 275, 4-((3S)-Methyl-1,1-dioxo-6-phenyl-[1,2]thiazinan-2-ylmethyl)-N-[2-(2-oxo-pyrrolidin-1-yl)-ethyl]-benzamide]	6050 nM
CCOC(=O)N1CCC(NC(=O)c2ccc(CN3[C@@H](C)CCC(c4ccccc4)S3(=O)=O)cc2)CC1 (stereo partly drawn) [Example 276, 4-[4-((3S)-Methyl-1,1-dioxo-6-phenyl-[1,2]thiazinan-2-ylmethyl)-benzoylamino]-piperidine-1-carboxylic acid ethyl ester]	4440 nM
C[C@H]1CCC(c2ccccc2)S(=O)(=O)N1Cc1ccc(C(=O)NCCN2CCCCC2=O)cc1 (stereo partly drawn) [Example 277, 4-((3S)-Methyl-1,1-dioxo-6-phenyl-[1,2]thiazinan-2-ylmethyl)-N-[2-(2-oxo-piperidin-1-yl)-ethyl]-benzamide]	5110 nM
C[C@H]1CCC(c2ccccc2)S(=O)(=O)N1Cc1ccc(C(=O)N2CCC(CO)CC2)cc1 (stereo partly drawn) [Example 278, (4-Hydroxymethyl-piperidin-1-yl)-[4-((3S)-methyl-1,1-dioxo-6-phenyl-[1,2]thiazinan-2-ylmethyl)-phenyl]-methanone]	1100 nM
C[C@H]1CCC(c2ccccc2)S(=O)(=O)N1Cc1ccc(C(=O)N2CCCOCC2)cc1 (stereo partly drawn) [Example 282, [4-((3S)-Methyl-1,1-dioxo-6-phenyl-[1,2]thiazinan-2-ylmethyl)-phenyl]-[1,4]oxazepan-4-yl-methanone]	5060 nM
